These results are taken from US20250388605A1, “HETEROBIFUNCTIONAL COMPOUNDS AND METHODS OF TREATING DISEASE” (Halda Therapeutics OpCo, Inc., priority 2022, published 2025).

One experiment concerns the target T1, BRD4-BD1 (Homo sapiens, UniProt O60885).
T1 construct: made in house; host or cells: T7 phage grown in an E. coli host derived from the BL21 strain
The experiment can be described thus: Binding affinity to BRD4-BD1 (bromoKdELECT assay). To be noted: 11-point 3-fold dilution series.

The subject of a further experiment is VCaP cells. The experiment in a line: Cellular growth inhibition assay for VCaP cells, CellTiter-Glo. The following applies: 72 hours. The experiment is classed as cell-based, human. In outline:
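GI50 values come from four-parameter curve fits of luminescence data normalized to a zero baseline. Compound, in medium with 0.5% DMSO, was added one day after plating and left for 72 h before CellTiter-Glo 2.0 addition.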
In general terms: Cellular ATP, detected with luciferase, serves as a proxy for viable cell number.

Another experiment relates to T47D cells. The experiment in a line: Cellular Growth Inhibition Assay for T47D Cells (CellTiter-Glo). The experiment is classed as cell-based, human. To be noted: 72 hours. In outline:
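GI50 values derive from four-parameter regression of CellTiter-Glo 2.0 luminescence, using zero luminescence as baseline. Human breast cancer T47D cells (3000/well; DMEM, 10% FBS, 0.2 units/mL insulin) were exposed for 72 h to compound dilutions at 0.5% DMSO, with dosing starting 24 h after seeding.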

Bounds are passed on as bounds.

Take `CC(C)c1ccc(Oc2cccc(OCCN3CCN(c4ncc(C(=O)NC5C(C)(C)C(Oc6ccc(C#N)c(Cl)c6)C5(C)C)cn4)CC3)c2)c(-c2cn(C)c(=O)c3[nH]ccc23)c1` (stereo not drawn) [Compound I-107, N-[3-(3-chloro-4-cyano-phenoxy)-2,2,4,4-tetramethyl-cyclobutyl]-2-[4-[2-[3-[4-isopropyl-2-(6-methyl-7-oxo-1H-pyrrolo[2,3-c]pyridin-4-yl)phenoxy]phenoxy]ethyl]piperazin-1-yl]pyrimidine-5-carboxamide]: the Kd on BRD4-BD1 fell in the range of 50 to 500 nM. Besides, the GI50 is greater than 3000 nM in the experiment with VCaP cells (Homo sapiens) and less than 500 nM in the experiment with T47D cells (Homo sapiens).

Turning to `Cn1cc(-c2cc(C(C)(C)O)ccc2Oc2cccc(CCCN3CCN(c4ncc(C(=O)N[C@H]5C(C)(C)[C@H](Oc6ccc(C#N)c(Cl)c6)C5(C)C)cn4)CC3)c2)c2cc[nH]c2c1=O` [Compound I-110], at BRD4-BD1, the Kd is 500 to 2500 nM. Moreover, the GI50 in the experiment with VCaP cells (Homo sapiens) and with T47D cells (Homo sapiens) was less than 500 nM throughout.

In turn, `CCS(=O)(=O)Nc1ccc(Oc2cccc(OCCOC3CCN(c4ncc(C(=O)N[C@H]5C(C)(C)[C@H](Oc6ccc(C#N)c(Cl)c6)C5(C)C)cn4)CC3)c2)c(-c2cn(C)c(=O)c3c2ccn3C)c1` [Compound I-121] came in with an equilibrium dissociation constant (Kd) at BRD4-BD1 greater than 2500 nM. In addition, the GI50 was less than 500 nM in the experiment with VCaP cells (Homo sapiens) and 500 to 1500 nM in the experiment with T47D cells (Homo sapiens).

The compound `CCS(=O)(=O)Nc1ccc(Oc2cccc(N3CCN(C4CN(c5ncc(C(=O)N[C@H]6C(C)(C)[C@H](Oc7ccc(C#N)c(Cl)c7)C6(C)C)cn5)C4)CC3)c2)c(-c2cn(C)c(=O)c3[nH]ccc23)c1` [Compound I-126] showed a Kd on BRD4-BD1 of 50 to 500 nM. The concentration for 50% growth inhibition (GI50) in the experiment with VCaP cells (Homo sapiens) and in the experiment with T47D cells (Homo sapiens) was less than 500 nM in each case.

Regarding `Cn1cc(-c2ccccc2Oc2cccc(OCCOC3CCN(c4ncc(C(=O)N[C@H]5C(C)(C)[C@H](Oc6ccc(C#N)c(Cl)c6)C5(C)C)cn4)CC3)c2)c2ccn(C)c2c1=O` [Compound I-137], on BRD4-BD1, the Kd is greater than 2500 nM. The figures for the GI50 in the experiment with VCaP cells (Homo sapiens) and in the experiment on T47D cells (Homo sapiens) were greater than 3000 nM and less than 500 nM, respectively.

In the case of `CCS(=O)(=O)Nc1ccc(Oc2ccc(OCC3CCN(c4ncc(C(=O)N[C@H]5C(C)(C)[C@H](Oc6ccc(C#N)c(Cl)c6)C5(C)C)cn4)CC3)cc2)c(-c2cn(C)c(=O)c3[nH]ccc23)c1` [Compound I-138], the Kd at BRD4-BD1 is greater than 2500 nM. Further, the GI50 in the experiment with VCaP cells and in the experiment with T47D cells was less than 500 nM throughout.

Regarding `Cn1cc(-c2cc(C(C)(C)O)ccc2Oc2cccc(OCCC3CCN(c4ncc(C(=O)N[C@H]5C(C)(C)[C@H](Oc6ccc(C#N)c(Cl)c6)C5(C)C)cn4)CC3)c2F)c2cc[nH]c2c1=O` [Compound I-142], the equilibrium dissociation constant (Kd) on BRD4-BD1 was greater than 2500 nM. Further, the concentration for 50% growth inhibition (GI50) is less than 500 nM with VCaP cells (Homo sapiens) and 500 to 1500 nM in the experiment with T47D cells (Homo sapiens).

With `Cn1cc(-c2cc(C(C)(C)O)ccc2Oc2cccc(CCCN3CCN(c4ncc(C(=O)N[C@H]5C(C)(C)[C@H](Oc6ccc(C#N)c(Cl)c6)C5(C)C)cn4)CC3)c2F)c2cc[nH]c2c1=O` [Compound I-143], the dissociation constant Kd at BRD4-BD1 lay in the range of 50 to 500 nM. Besides, the results for the 50% growth inhibitory concentration (GI50) with VCaP cells (Homo sapiens) and in the experiment on T47D cells (Homo sapiens) were less than 500 nM and 500 to 1500 nM, respectively.

At BRD4-BD1, `Cn1cc(-c2cc(C(C)(C)O)ccc2Oc2cccc(CCOC3CCN(c4ncc(C(=O)N[C@H]5C(C)(C)[C@H](Oc6ccc(C#N)c(Cl)c6)C5(C)C)cn4)CC3)c2F)c2cc[nH]c2c1=O` [Compound I-147] came in with a Kd greater than 2500 nM. Further, the GI50 in the experiment on VCaP cells and with T47D cells was less than 500 nM in each case.

As to `Cn1cc(-c2cc(C(C)(C)O)ccc2Oc2cccc(OCCC3CCN(c4ncc(C(=O)N[C@H]5C(C)(C)[C@H](Oc6ccc(C#N)c(Cl)c6)C5(C)C)cn4)CC3)c2)c2cc[nH]c2c1=O` [Compound I-156], the Kd on BRD4-BD1 is 500 to 2500 nM. Also, the GI50 is greater than 3000 nM in the experiment on VCaP cells and 500 to 1500 nM in the experiment on T47D cells.

Regarding `Cn1cc(-c2cc(C(C)(C)O)ccc2Oc2cccc(N3CC(OC4CCN(c5ncc(C(=O)N[C@H]6C(C)(C)[C@H](Oc7ccc(C#N)c(Cl)c7)C6(C)C)cn5)CC4)C3)c2F)c2cc[nH]c2c1=O` [Compound I-190], at BRD4-BD1, the equilibrium dissociation constant (Kd) is 500 to 2500 nM. For the same compound, the GI50 is less than 500 nM in the experiment with VCaP cells and 500 to 1500 nM in the experiment with T47D cells.

Take `Cc1ccc(CCCOC2CCN(c3ncc(C(=O)N[C@H]4C(C)(C)[C@H](Oc5ccc(C#N)c(Cl)c5)C4(C)C)cn3)CC2)cc1Oc1ccc(C(C)(C)O)cc1-c1cn(C)c(=O)c2[nH]ccc12` [Compound I-192]: the equilibrium dissociation constant (Kd) on BRD4-BD1 was greater than 2500 nM. Further, the concentration for 50% growth inhibition (GI50) in the experiment with VCaP cells (Homo sapiens) and in the experiment with T47D cells (Homo sapiens) was 500 to 1500 nM in each case.

Take `Cn1cc(-c2cc(C(C)(C)O)ccc2Oc2cccc(CCOC3CCN(c4ncc(C(=O)N[C@H]5C(C)(C)[C@H](Oc6ccc(C#N)c(Cl)c6)C5(C)C)cn4)CC3)c2)c2cc[nH]c2c1=O` [Compound I-193]: on BRD4-BD1, the dissociation constant Kd is greater than 2500 nM. Moreover, the GI50 in the experiment on VCaP cells and in the experiment with T47D cells was less than 500 nM each time.

`Cn1cc(-c2cc(C(C)(C)O)ccc2Oc2ccc(CCOC3CCN(c4ncc(C(=O)N[C@H]5C(C)(C)[C@H](Oc6ccc(C#N)c(Cl)c6)C5(C)C)cn4)CC3)cc2)c2cc[nH]c2c1=O` [Compound I-194] had a Kd on BRD4-BD1 greater than 2500 nM. In addition, the 50% growth inhibitory concentration (GI50) in the experiment with VCaP cells (Homo sapiens) and in the experiment on T47D cells (Homo sapiens) was 500 to 1500 nM in each case.

The compound `Cc1ccc(CCCOC2CCN(c3ncc(C(=O)N[C@H]4C(C)(C)[C@H](Oc5ccc(C#N)c(Cl)c5)C4(C)C)cn3)CC2)c(C)c1Oc1ccc(C(C)(C)O)cc1-c1cn(C)c(=O)c2[nH]ccc12` [Compound I-195] yielded a Kd on BRD4-BD1 greater than 2500 nM. For the same compound, the values for the GI50 with VCaP cells (Homo sapiens) and with T47D cells (Homo sapiens) were greater than 3000 nM and 500 to 1500 nM, respectively.

As to `Cn1cc(-c2cc(C(C)(C)O)ccc2Oc2cccc(N3CC(CC4CCN(c5ncc(C(=O)N[C@H]6C(C)(C)[C@H](Oc7ccc(C#N)c(Cl)c7)C6(C)C)cn5)CC4)C3)c2F)c2cc[nH]c2c1=O` [Compound I-196], the Kd at BRD4-BD1 was 50 to 500 nM. Besides, the GI50 with VCaP cells is greater than 3000 nM; in the experiment with T47D cells, 500 to 1500 nM.

`CN(c1ccc(Oc2ccc(C(C)(C)O)cc2-c2cn(C)c(=O)c3[nH]ccc23)cc1)C1CCN(c2ncc(C(=O)N[C@H]3C(C)(C)[C@H](Oc4ccc(C#N)c(Cl)c4)C3(C)C)cn2)CC1` [Compound I-197] showed a Kd at BRD4-BD1 of 50 to 500 nM. For the same compound, the GI50 in the experiment on VCaP cells (Homo sapiens) and in the experiment on T47D cells (Homo sapiens) was less than 500 nM in each case.

Compound `Cn1cc(-c2cc(C(C)(C)O)ccc2Oc2ccc(CCC3CCN(c4ncc(C(=O)N[C@H]5C(C)(C)[C@H](Oc6ccc(C#N)c(Cl)c6)C5(C)C)cn4)CC3)cc2)c2cc[nH]c2c1=O` [Compound I-203] displayed a dissociation constant Kd at BRD4-BD1 greater than 2500 nM. Moreover, the concentration for 50% growth inhibition (GI50) was 1500 to 3000 nM in the experiment with VCaP cells (Homo sapiens) and 500 to 1500 nM in the experiment on T47D cells (Homo sapiens).

With `CN(CCCc1ccc(Oc2ccc(C(C)(C)O)cc2-c2cn(C)c(=O)c3[nH]ccc23)cc1)c1ncc(C(=O)N[C@H]2C(C)(C)[C@H](Oc3ccc(C#N)c(Cl)c3)C2(C)C)cn1` [Compound I-211], the Kd on BRD4-BD1 was greater than 2500 nM. For the same compound, the 50% growth inhibitory concentration (GI50) with VCaP cells (Homo sapiens) and with T47D cells (Homo sapiens) was less than 500 nM in each case.

As for `CC(C)N(CC1CCN(c2ncc(C(=O)N[C@H]3C(C)(C)[C@H](Oc4ccc(C#N)c(Cl)c4)C3(C)C)cn2)CC1)[C@H]1C[C@H](Oc2cccc(Oc3ccc(C(C)(C)O)cc3-c3cn(C)c(=O)c4[nH]ccc34)c2F)C1` [Compound I-214], the equilibrium dissociation constant (Kd) at BRD4-BD1 is less than 50 nM. The concentration for 50% growth inhibition (GI50) with VCaP cells (Homo sapiens) and in the experiment with T47D cells (Homo sapiens) was less than 500 nM in each case.

On BRD4-BD1, `CCS(=O)(=O)c1ccc(OC(CCCCN2CCN(c3ncc(C(=O)NC4C(C)(C)C(Oc5ccc(C#N)c(Cl)c5)C4(C)C)cn3)CC2)C2CC2)c(-c2cn(C)c(=O)c3[nH]ccc23)c1` (stereo not drawn) [Compound I-223, N-[3-(3-chloro-4-cyano-phenoxy)-2,2,4,4-tetramethyl-cyclobutyl]-2-[4-[5-cyclopropyl-5-[4-ethylsulfonyl-2-(6-methyl-7-oxo-1H-pyrrolo[2,3-c]pyridin-4-yl)phenoxy]pentyl]piperazin-1-yl]pyrimidine-5-carboxamide] registered a Kd of less than 50 nM. The 50% growth inhibitory concentration (GI50) in the experiment with VCaP cells (Homo sapiens) and in the experiment on T47D cells (Homo sapiens) was less than 500 nM throughout.

Regarding `Cn1cc(-c2cc(C(C)(C)O)ccc2Oc2ccc(N3CC(CN4CC5CC4CN5c4ncc(C(=O)N[C@H]5C(C)(C)[C@H](Oc6ccc(C#N)c(Cl)c6)C5(C)C)cn4)C3)cc2)c2cc[nH]c2c1=O` (stereo partly drawn) [Compound I-228], at BRD4-BD1, the Kd is less than 50 nM. Moreover, the GI50 in the experiment with VCaP cells (Homo sapiens) and in the experiment with T47D cells (Homo sapiens) was less than 500 nM throughout.

On to `CCS(=O)(=O)c1ccc(OCC(CCCN2CCN(c3ncc(C(=O)NC4C(C)(C)C(Oc5ccc(C#N)c(Cl)c5)C4(C)C)cn3)CC2)C2CC2)c(-c2cn(C)c(=O)c3[nH]ccc23)c1` (stereo not drawn) [Compound I-231, N-[3-(3-chloro-4-cyano-phenoxy)-2,2,4,4-tetramethyl-cyclobutyl]-2-[4-[4-cyclopropyl-5-[4-ethylsulfonyl-2-(6-methyl-7-oxo-1H-pyrrolo[2,3-c]pyridin-4-yl)phenoxy]pentyl]piperazin-1-yl]pyrimidine-5-carboxamide], for which the Kd at BRD4-BD1 was less than 50 nM. Further, the concentration for 50% growth inhibition (GI50) with VCaP cells (Homo sapiens) and with T47D cells (Homo sapiens) was less than 500 nM each time.

For orientation: Kd means the concentration at which binding is half-saturated. Lower therefore signals higher affinity. For orientation: GI50 means the concentration that inhibits growth by half.
